Results: ChEMBL document CHEMBL4387711, “Discovery of niclosamide and its O-alkylamino-tethered derivatives as potent antibacterial agents against carbapenemase-producing and/or colistin resistant Enterobacteriaceae isolates” (2019)
Active and inactive are the calls of the source.

How the values were obtained:
Assay type in all cases: functional, organism-based
[1] = test system: Klebsiella aerogenes; assay: Antibacterial activity against colistin-resistant Enterobacter aerogenes 53 assessed as inhibition of growth at 50 uM after 18 hrs
[2] = test system: Klebsiella pneumoniae; assay: Antibacterial activity against Klebsiella pneumoniae CECT-997 assessed as inhibition of growth at 50 uM after 18 hrs
[3] = test system: Klebsiella pneumoniae; assay: Antibacterial activity against colistin-resistant OXA-48/CTX-M-15/carbapenemase-producing Klebsiella pneumoniae 29 assessed as inhibition of growth at 50 uM after 18 hrs
[4] = test system: Enterobacter cloacae; assay: Antibacterial activity against colistin-resistant Enterobacter cloacae 32 assessed as inhibition of growth at 50 uM after 18 hrs
[5] = test system: Escherichia coli; assay: Antibacterial activity against colistin-susceptible NDM1/KPC-producing Escherichia coli assessed as inhibition of growth at 50 uM after 18 hrs
[6] = test system: Klebsiella pneumoniae; assay: Antibacterial activity against colistin-susceptible VIM1/carbapenemase-producing Klebsiella pneumoniae 07 assessed as inhibition of growth at 50 uM after 18 hrs
[7] = test system: Enterobacter cloacae; assay: Antibacterial activity against colistin-resistant Enterobacter cloacae 272 assessed as inhibition of growth at 50 uM after 18 hrs
[8] = test system: Enterobacter cloacae; assay: Antibacterial activity against colistin-resistant Enterobacter cloacae 142 assessed as inhibition of growth at 50 uM after 18 hrs
[9] = test system: Enterobacter cloacae; assay: Antibacterial activity against colistin-resistant Enterobacter cloacae 280 assessed as inhibition of growth at 50 uM after 18 hrs
[10] = test system: Enterobacter cloacae; assay: Antibacterial activity against colistin-resistant Enterobacter cloacae 190 assessed as inhibition of growth at 50 uM after 18 hrs
[11] = test system: Enterobacter cloacae; assay: Antibacterial activity against colistin-resistant Enterobacter cloacae 297 assessed as inhibition of growth at 50 uM after 18 hrs
[12] = test system: Enterobacter cloacae; assay: Antibacterial activity against colistin-resistant Enterobacter cloacae 263 assessed as inhibition of growth at 50 uM after 18 hrs
[13] = test system: Klebsiella pneumoniae; assay: Antibacterial activity against colistin-susceptible OXA-48/CTX-M-15/carbapenemase-producing Klebsiella pneumoniae 28 assessed as inhibition of growth at 50 uM after 18 hrs
[14] = test system: Klebsiella pneumoniae; assay: Antibacterial activity against colistin-resistant VIM1/DHAI/carbapenemase-producing Klebsiella pneumoniae 21 assessed as inhibition of growth at 50 uM after 18 hrs
[15] = test system: Klebsiella pneumoniae; assay: Antibacterial activity against colistin-susceptible NDM-1/carbapenemase-producing Klebsiella pneumoniae assessed as inhibition of growth at 50 uM after 18 hrs
[16] = test system: Klebsiella aerogenes; assay: Antibacterial activity against colistin-resistant Enterobacter aerogenes 3 assessed as inhibition of growth at 50 uM after 18 hrs

Measured: growth inhibition (GI)

NCCCOc1ccc(Cl)cc1C(=O)Nc1ccc([N+](=O)[O-])cc1Cl
inactive: [1] | [2] | [3] | [4] | [5] | [6] | [7] | [8] | [9] | [10] | [11] | [12] | [13] | [14] | [15] | [16]

CN1CCC(Oc2ccc(Cl)cc2C(=O)Nc2ccc([N+](=O)[O-])cc2Cl)CC1
inactive: [1] | [2] | [3] | [4] | [5] | [6] | [7] | [8] | [9] | [10] | [11] | [12] | [13] | [14] | [15] | [16]

O=C(Nc1ccc([N+](=O)[O-])cc1Cl)c1cc(Cl)ccc1OC1CCNCC1
inactive: [1] | [2] | [3] | [4] | [5] | [6] | [7] | [8] | [9] | [10] | [11] | [12] | [13] | [14] | [15] | [16]

O=C(Nc1ccc([N+](=O)[O-])cc1Cl)c1cc(Cl)ccc1OCCN1CCNCC1
inactive: [1] | [2] | [3] | [4] | [5] | [6] | [7] | [8] | [9] | [10] | [11] | [12] | [13] | [14] | [15] | [16]

O=C(Nc1ccc([N+](=O)[O-])cc1Cl)c1cc(Cl)ccc1OCCN1CCCCC1
inactive: [1] | [2] | [3] | [4] | [5] | [6] | [7] | [8] | [9] | [10] | [11] | [12] | [13] | [14] | [15] | [16]

CN(C)CCOc1ccc(Cl)cc1C(=O)Nc1ccc([N+](=O)[O-])cc1Cl
inactive: [1] | [2] | [3] | [4] | [5] | [6] | [7] | [8] | [9] | [10] | [11] | [12] | [13] | [14] | [15] | [16]

O=C(Nc1ccc([N+](=O)[O-])cc1Cl)c1cc(Cl)ccc1OCCN1CCOCC1
inactive: [1] | [2] | [3] | [4] | [5] | [6] | [7] | [8] | [9] | [10] | [11] | [12] | [13] | [14] | [15] | [16]

NCCOc1ccc(Cl)cc1C(=O)Nc1ccc([N+](=O)[O-])cc1Cl
inactive: [1] | [2] | [3] | [4] | [5] | [6] | [7] | [8] | [9] | [10] | [11] | [12] | [13] | [14] | [15] | [16]

CN1CCN(CCOc2ccc(Cl)cc2C(=O)Nc2ccc([N+](=O)[O-])cc2Cl)CC1
inactive: [1] | [2] | [3] | [4] | [5] | [6] | [7] | [8] | [9] | [10] | [11] | [12] | [13] | [14] | [15] | [16]
